From patent US20150087627A1, “COMBINATION OF KINASE INHIBITORS AND USES THEREOF” (Intellikine LLC, priority 2011, published 2015)

Columns and labels:
Assay type in all cases: in vivo, Mus musculus
[1] = test system: MDA-MB-361 human breast cancer xenografts; experiment: Antitumor activity, multiple dosing schedules, MDA-MB-361 xenografts (Example 41); details: Day 28
Experimental: Compound A was prepared in 100% PEG400 every 5-7 days and stored at approximately 25° C., shielded from light. The control article used in this study was 100% PEG400.
Low passage MDA-MB-361 cells were grown in Dulbecco's Modified Eagle's Medium (DMEM) media supplemented with 20% fetal bovine serum (FBS) and 1× penicillin/streptomycin (Invitrogen) until approximately 80% confluency was reached. Prior to injection, the cells were detached with Trypsin (Invitrogen), washed twice with phosphate buffered saline (PBS), and resuspended in RPMI (Roswell Park Memorial Institute) media (Invitrogen) without supplements. Cells were resuspended to a final concentration of 10.0×10^7 cells/mL in DMEM media without supplements, with 50% Matrigel (BD Biosciences). MDA-MB-361 cells (10.0×10^6 cells per animal in 0.1-mL injection volume) were implanted SC into the flank of female athymic nude mice. The animals used in this study are described in the following table.
4-5 week old female athymic nude mice were inoculated SC in flank (cell suspension in serum free DMEM and 50% Matrigel) with 10.0×10^6 MDA-MB-361 cells. Tumor growth was monitored with vernier calipers. The mean TV (MTV) was calculated using the formula V=W^2×L/2. When the MTV reached approximately 280 mm^3, the animals were randomized into 14 treatment groups (n=5/group). […] Tumor growth and body weight were measured twice per week. Percent TGI and body weight change were calculated on Day 28. Treatment started on Day 0 for 28 days. Antitumor activity was determined on day 28 of treatment by calculating the percent TGI using
Percent TGI=(mean tumor volume [MTV] of the control group−MTV of a treated group)/MTV of the control group×100. Equation 1
The differences in the tumor growth trends over time between pairs of treatment groups were assessed using linear mixed effects regression models. These models account for the fact that each animal was measured at multiple time points. A separate model was fit for each comparison, and the area under the curve (AUC) values for each treatment group were calculated using the predicted values from the model. The percent decrease in AUC (ΔAUC) relative to the reference group was then calculated.
Drug combinations were assessed for synergy using observed AUC values. The change in AUC relative to the control was calculated for both single agent treatment groups as well as the combination group. The interaction between the two compounds was then assessed by comparing the change in AUC observed in the combination group to the sum of the changes observed in both single agents. The results can be divided into four categories: synergistic, additive, sub-additive, and antagonistic. Further details regarding combination analyses are provided in the appendix. All p values less than 0.05 were considered significant.

[2] = Plasma insulin in nude mice (Example 41); details: 120 minutes after the last dose (Day 28)
Experimental: Insulin was measured using Mesoscale Discovery's Mouse/Rat Insulin Kit (Rockville, Md., USA). Plasma samples collected at 120 minutes post last dose were thawed on ice and reagents from the kit were brought to room temperature. 150 μL of Blocker A Solution was added to each well, the plates were covered, and then incubated on a plate shaker (300-1000 rpm) for 1 hour at room temperature. After the first incubation, the wells were washed three times with phosphate buffered saline+Tween 20 (PBS-T), and then 40 μL of 1× Detection Antibody Solution followed by 10 μL of unknown neat samples or standards were added to the wells in duplicate. The plate was then covered and incubated on a plate shaker (300-1000 rpm) for 2 hours at room temperature. Following the second incubation, the wells were washed three times with PBS-T, and then 150 μL of 1× Read Buffer T was added to each well. The plates were immediately analyzed on the SECTOR Imager using the MSD Discovery Workbench software (Meso Scale Discovery). A 4-parameter logisitic model was utilized by the software to determine the concentrations of the unknown samples based on the standard curve it generated.

[3] = test system: HCT-116 human colorectal cancer xenografts; experiment: Antitumor activity, HCT-116 xenografts (Example 44); details: Day 21
Experimental: Compound A was prepared in PEG400 (TCAL, San Diego, Calif., USA) every 7 days and stored at room temperature, shielded from light. The vehicle used in this study was PEG400 (Sigma, St. Louis, Mo., USA).
Low passage (passage number 8) HCT-116 cells (American Type Culture Collection ATCC, Manassas, Va., USA) were grown in McCoy's 5A (ATCC) media with 10% fetal bovine serum (FBS) (PAA Laboratories Pty Ltd, Morningside, Queensland, Australia) and supplied at a concentration of 5.0×10^7 cells/mL. HCT-116 cells (5.0×10^6/animal, 0.1-mL injection volume) were implanted SC into the flank of female athymic nude mice. The animals used in this study are described in the following table.
Female 9 to 10-week-old female Foxn1 nu Hsd:Athymic nude mice were inoculated SC in the flank with 5.0×10^6 HCT-116 cells. Tumor growth was monitored with vernier calipers. The MTV was calculated using the formula V=W^2×L/2. […] Tumor growth and body weight were measured twice per week. Percent TGI and body weight change were calculated on Day 21 while animals were on treatment. […] Antitumor activity was determined by calculating the percent TGI using Equation 1: % tumor growth inhibition (TGI)=(mean tumor volume [MTV] of the control group−MTV of a treated group)/MTV of the control group×100. […]
Drug combinations were assessed for synergy using observed AUC values. […]

SMILES | TGI ([1]; 60 mg/kg QD PO) [%] | TGI ([1]; 70 mg/kg QD 3on/4off PO) [%] | TGI ([1]; 140 mg/kg QD 3on/4off PO) [%] | TGI ([1]; 210 mg/kg QW PO) [%] | Mean Plasma Insulin at 2 hr. ([2]; 60 mg/kg QD) [ng/mL] | Plasma Insulin Fold Over Control ([2]; 60 mg/kg QD) [fold] | Mean Plasma Insulin at 2 hr. ([2]; 70 mg/kg QD 3on/4off) [ng/mL] | Plasma Insulin Fold Over Control ([2]; 70 mg/kg QD 3on/4off) [fold] | Mean Plasma Insulin at 2 hr. ([2]; 140 mg/kg QD 3on/4off) [ng/mL] | Plasma Insulin Fold Over Control ([2]; 140 mg/kg QD 3on/4off) [fold] | Mean Plasma Insulin at 2 hr. ([2]; 210 mg/kg QW) [ng/mL] | Plasma Insulin Fold Over Control ([2]; 210 mg/kg QW) [fold] | TGI ([3]; 120 mg/kg PO QD for 21 days) [%] | TGI ([1]; 0.3 mg/kg QD PO) [%] | TGI ([1]; 1.0 mg/kg QD 3on/4off PO) [%] | TGI ([1]; 3.0 mg/kg QW PO) [%] | Mean Plasma Insulin at 2 hr. ([2]; 0.3 mg/kg QD) [ng/mL] | Mean Plasma Insulin at 2 hr. ([2]; 1.0 mg/kg QD 3on/4off) [ng/mL] | Mean Plasma Insulin at 2 hr. ([2]; 3.0 mg/kg QW) [ng/mL] | TGI ([3]; 0.6 mg/kg PO QD 5on/2off for 21 days, not significantly different from control) [%]
Nc1nc2cc(-c3ccc4ncc(C(=O)N5CCOCC5)n4c3)ccc2o1 [Compound A] | 84.5 | 76.0 | 84.2 | 64.7 | 0.7 | 1.47 | 1.51 | 3.16 | 2.39 | 5.01 | 3.96 | 8.29 | 8.2 |  |  |  |  |  |  | 
CC(C)n1nc(-c2ccc3oc(N)nc3c2)c2c(N)ncnc21 [Compound B] |  |  |  |  |  |  |  |  |  |  |  |  |  | 71.1 | 63.6 | 52.7 | 3.74 | 2.83 | 5.94 | 4.5
